{"source": "ChEMBL document CHEMBL1127276", "about": "“Chemical and plasma hydrolyses of a diphenyl -aminomethyl phosphonate prodrug inhibitor of neutral endopeptidase 24.11” (Bioorg Med Chem Lett, 1994)", "key": {"[1]": {"assay": "In vitro half life at 1.5 -5.6ug/mL, 37 degree C in human plasma", "type": "ADME, cell-free"}, "[2]": {"assay": "In vitro half life at 1.5 -5.6ug/mL, 37 degree C in monkey plasma", "type": "ADME, cell-free", "details": "cercopithecidae"}, "[3]": {"assay": "In vitro half life at 1.5 -5.6ug/mL, 37 degree C in dog plasma", "type": "ADME, Canis lupus familiaris"}, "[4]": {"assay": "In vitro half life at 1.5 -5.6ug/mL, 37 degree C in rat plasma", "type": "ADME"}, "[5]": {"assay": "Ionization constant in acidic (COOH)medium", "type": "physicochemical", "details": "read-out: pKa2"}, "[6]": {"assay": "Half life at a pH 12.01 in […] medium", "type": "ADME"}, "[7]": {"assay": "Half life at a pH 8.5 in Na2HPO4/NaH2PO4 medium", "type": "ADME"}, "[8]": {"assay": "Half life at a pH 8.78 in KHCO3 medium", "type": "ADME"}, "[9]": {"assay": "Ionization constant in basic (NH2+) medium", "type": "physicochemical", "details": "read-out: pKa4"}, "[10]": {"assay": "Half life at a pH 13.65 in KOH medium", "type": "ADME"}, "[11]": {"assay": "Half life at a pH 8.44 in NaHCO3 medium", "type": "ADME"}, "[12]": {"assay": "Ionization constant in slightly acidic(POH) medium", "type": "physicochemical", "details": "read-out: pKa3"}}, "data": [{"compound": "O=C(O)CCNC(=O)[C@H](Cc1ccc(-c2ccccc2)cc1)NCP(=O)(O)Oc1ccccc1", "values": [{"measurement": "half-life", "setting": "[1]", "result": 4.2, "unit": "h"}, {"measurement": "half-life", "setting": "[2]", "result": "> 7.8", "unit": "h"}, {"measurement": "half-life", "setting": "[3]", "result": 38, "unit": "h"}, {"measurement": "half-life", "setting": "[4]", "result": 9.4, "unit": "h"}, {"measurement": "pKa", "setting": "[5]", "result": 5.8}, {"measurement": "half-life", "setting": "[6]", "result": "> 0.1", "unit": "h"}, {"measurement": "half-life", "setting": "[7]", "result": "> 6", "unit": "h"}, {"measurement": "half-life", "setting": "[8]", "result": 0.51, "unit": "h"}, {"measurement": "pKa", "setting": "[9]", "result": 10}, {"measurement": "half-life", "setting": "[10]", "result": "> 6", "unit": "min"}, {"measurement": "half-life", "setting": "[11]", "result": 0.55, "unit": "h"}]}, {"compound": "O=C(O)CCNC(=O)[C@H](Cc1ccc(-c2ccccc2)cc1)NCP(=O)(O)O", "values": [{"measurement": "pKa", "setting": "[5]", "result": 5.5}, {"measurement": "pKa", "setting": "[12]", "result": 7.8}, {"measurement": "pKa", "setting": "[9]", "result": 10}]}, {"compound": "O=C(O)CCNC(=O)[C@H](Cc1ccc(-c2ccccc2)cc1)NCP(=O)(Oc1ccccc1)Oc1ccccc1", "values": [{"measurement": "half-life", "setting": "[1]", "result": 1.4, "unit": "h"}, {"measurement": "half-life", "setting": "[2]", "result": 4.7, "unit": "h"}, {"measurement": "half-life", "setting": "[3]", "result": 13, "unit": "h"}, {"measurement": "half-life", "setting": "[4]", "result": 2.5, "unit": "h"}, {"measurement": "half-life", "setting": "[6]", "result": "< 0.167", "unit": "h"}, {"measurement": "half-life", "setting": "[7]", "result": "> 96", "unit": "h"}, {"measurement": "half-life", "setting": "[8]", "result": 8.19, "unit": "h"}, {"measurement": "half-life", "setting": "[10]", "result": "< 5", "unit": "min"}, {"measurement": "half-life", "setting": "[11]", "result": 8.68, "unit": "h"}]}]}
